Test results taken from paper PMC8467340, “Fine Tuning of Cholinesterase and Glutathione-S-Transferase Activities by Organoruthenium(II) Complexes” (Biomedicines, 2021).
Like-named read-outs stand apart in the source and are kept apart here.

Columns and labels:
[1] = molecular target: T1, electric eel AChE (eeAChE) (Electrophorus electricus, UniProt O42275); conditions: previously reported; read-out: Enzyme Inhibition eeAChE IC50; cited from earlier work
T1 construct: purchased Sigma-Aldrich

[2] = molecular target: T2, horse serum BChE (hsBChE) (Equus caballus, UniProt P81908); conditions: previously reported; read-out: Enzyme Inhibition hsBChE IC50; cited from earlier work
T2 construct: horse serum BChE (hsBChE); purchased Sigma-Aldrich; host or cells: horse serum

[3] = test system: horse liver GST (hlGST); conditions: previously reported, cited from earlier work; for IC50: read-out: Enzyme Inhibition hlGST IC50
[4] = molecular target: T3, human placenta GST (hGST) (Homo sapiens, UniProt P09211); conditions: previously reported; read-out: Enzyme Inhibition hGST IC50; cited from earlier work
T3 construct: human placenta GST (hGST); purchased Sigma-Aldrich; host or cells: human placenta

[5] = molecular target: T1, electric eel AChE (eeAChE); assay: Cholinesterase inhibition assay (modified Ellman method), eeAChE; type: biochemical; conditions: for IC50: mean ± SEM of three independent measurements, / = No activity, read-out: Enzyme Inhibition eeAChE IC50; for type of inhibition of eeAChE: Dixon plots
Procedure: (§1) The activities of the ChEs were determined using a modification of the Ellman method adapted for microtiter plates, as described in [47]. Stock solutions of complexes 4, 5, 6, 7, 8 and 10, as well as of ligands L2 and L3 (1 mg/mL) were prepared in 100% MeOH, whereas stock solutions of complexes 2 and 3 (1 mg/mL) were prepared in 5% DMSO in deionised water. Positive control (1 mg/mL neostigmine bromide; Sigma-Aldrich, St. Louis, MO, USA) was also prepared in 100% MeOH. The stock solutions of the potential inhibitors and the positive and negative controls were added to the wells, and progressively diluted in 100 mM potassium phosphate buffer (pH 7.4) to the final volume of 50 μL. Then, 100 μL acetylthiocholine chloride (1 mM) and 5,5′-dithiobis-2-nitrobenzoic acid (0.5 mM) in 100 mM potassium phosphate buffer (pH 7.4) were added into the microtiter plate wells. Three ChEs were used as the enzyme sources: electric eel AChE (eeAChE); human recombinant AChE (hrAChE), and horse serum BChE (hsBChE) (all Sigma-Aldrich, St. Louis, MO, USA). These were dissolved in the same buffer to the final concentration of 0.0075 U/mL. Finally, 50 μL of each ChE solution was added into the microtiter plate wells to start the reaction, which was followed spectrophotometrically at 405 nm at 25 °C over 5 min using a kinetic microplate reader (Dynex Technologies Inc., Chantilly, VA, USA). The blank reactions without the inhibitors were run with the appropriate dilutions of the solvents in which the tested compounds were initially diluted (100% MeOH or 5% aqueous DMSO), and the readings were corrected according to the appropriate blanks. Each measurement was repeated at least three times. […] The data were analysed using the OriginPro software (OriginPro 2020, OriginLab Corporation, Northampton, MA, USA).

[6] = molecular target: T4, human recombinant AChE (hrAChE) (Homo sapiens, UniProt P22303); assay: Cholinesterase inhibition assay (modified Ellman method), hrAChE; type: biochemical; conditions: for IC50: mean ± SEM of three independent measurements, / = No activity, read-out: Enzyme Inhibition hrAChE IC50; for type of inhibition of hrAChE: Dixon plots
T4 construct: purchased Sigma-Aldrich
Procedure: as §1

[7] = molecular target: T2, horse serum BChE (hsBChE); assay: Cholinesterase inhibition assay (modified Ellman method), hsBChE; type: biochemical; conditions: for type of inhibition of hsBChE: Dixon plots; for IC50: mean ± SEM of three independent measurements, / = No activity, read-out: Enzyme Inhibition hsBChE IC50
Procedure: as §1

[8] = molecular target: horse liver GST (hlGST); assay: Glutathione S-transferase inhibition assay (Habig method), hlGST; type: biochemical; conditions: for IC50: mean ± SEM of three independent measurements, / = No activity, read-out: Enzyme Inhibition hlGST IC50; for type of inhibition of hlGST: Dixon plots; for Ki: determined for compounds with IC50 < 33 μM, substrate 200, 400, 800 μM, read-out: Enzyme Inhibition hlGST Ki
Procedure: (§2) The activities of the GSTs were determined according to the method described by Habig et al. (1974) using a cell imaging multi-mode reader (Cytation 3; BioTek, Winooski, VT, USA). The stock solutions of inhibitors were prepared as described for the ChE inhibition assays. Then the stock solutions of the potential inhibitors and negative controls were added to the wells, and progressively diluted in 100 mM sodium phosphate buffer (pH 6.5) to the final volume of 50 μL. 1-Chloro-2,4-dinitrobenzene (Sigma-Aldrich, St. Louis, MO, USA) was dissolved in ethanol to 50 mM, and then diluted with 100 mM sodium phosphate buffer (pH 6.5) to a final concentration of 4 mM. This solution (50 μL) and 2 mM reduced glutathione (100 μL) in the same buffer were added into the microtiter plate wells. Two GSTs were used as the enzyme sources: horse liver GST (hlGST) and human placenta GST (hGST) (Sigma-Aldrich, St. Louis, MO, USA). These were dissolved in 100 mM sodium phosphate buffer (pH 6.5), and 50 μL of these enzyme solutions were added into the wells to start the reaction. The final enzyme concentration was 0.044 U/mL. The blank reactions without the inhibitors were run with the appropriate dilutions of the solvents in which the tested compounds were initially diluted (100% MeOH or 5% aqueous DMSO), and the readings were corrected according to the appropriate blanks. The reactions were followed spectrophotometrically at 340 nm at 25 °C over 4 min. Each measurement was repeated at least three times. […] The data were analysed using the OriginPro software (OriginPro 2020, OriginLab Corporation, Northampton, MA, USA).

[9] = molecular target: T3, human placenta GST (hGST); assay: Glutathione S-transferase inhibition assay (Habig method), hGST; type: biochemical; conditions: for IC50: mean ± SEM of three independent measurements, / = No activity, read-out: Enzyme Inhibition hGST IC50; for type of inhibition of hGST: Dixon plots; for Ki: determined for compounds with IC50 < 33 μM, substrate 200, 400, 800 μM, read-out: Enzyme Inhibition hGST Ki
Procedure: as §2

[10] = molecular target: T4, human recombinant AChE (hrAChE); conditions: previously reported; read-out: Enzyme Inhibition hrAChE IC50; cited from earlier work

T3 sequence (P09211 2-210 limits assumed): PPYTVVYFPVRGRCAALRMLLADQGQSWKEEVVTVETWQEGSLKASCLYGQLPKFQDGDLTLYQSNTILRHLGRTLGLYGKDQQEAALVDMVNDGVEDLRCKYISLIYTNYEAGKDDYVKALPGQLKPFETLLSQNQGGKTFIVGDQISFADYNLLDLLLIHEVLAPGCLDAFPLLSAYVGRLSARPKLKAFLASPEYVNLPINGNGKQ
T2 sequence (P81908 whole entry): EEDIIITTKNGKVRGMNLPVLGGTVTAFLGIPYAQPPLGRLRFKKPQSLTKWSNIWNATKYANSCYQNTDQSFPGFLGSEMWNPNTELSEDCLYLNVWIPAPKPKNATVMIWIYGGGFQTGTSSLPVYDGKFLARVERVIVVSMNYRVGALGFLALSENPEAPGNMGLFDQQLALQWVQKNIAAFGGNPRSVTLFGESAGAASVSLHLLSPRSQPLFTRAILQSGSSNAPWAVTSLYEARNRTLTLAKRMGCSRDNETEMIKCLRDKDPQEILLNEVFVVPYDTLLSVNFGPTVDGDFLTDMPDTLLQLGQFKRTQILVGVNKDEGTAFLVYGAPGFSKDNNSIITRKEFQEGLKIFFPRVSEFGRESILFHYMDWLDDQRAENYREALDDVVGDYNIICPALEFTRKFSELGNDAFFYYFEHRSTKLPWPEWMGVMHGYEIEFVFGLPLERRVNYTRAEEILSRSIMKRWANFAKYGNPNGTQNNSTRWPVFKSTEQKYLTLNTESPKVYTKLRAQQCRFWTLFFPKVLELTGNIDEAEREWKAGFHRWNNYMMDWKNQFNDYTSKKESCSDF
T4 sequence (P22303 32-614): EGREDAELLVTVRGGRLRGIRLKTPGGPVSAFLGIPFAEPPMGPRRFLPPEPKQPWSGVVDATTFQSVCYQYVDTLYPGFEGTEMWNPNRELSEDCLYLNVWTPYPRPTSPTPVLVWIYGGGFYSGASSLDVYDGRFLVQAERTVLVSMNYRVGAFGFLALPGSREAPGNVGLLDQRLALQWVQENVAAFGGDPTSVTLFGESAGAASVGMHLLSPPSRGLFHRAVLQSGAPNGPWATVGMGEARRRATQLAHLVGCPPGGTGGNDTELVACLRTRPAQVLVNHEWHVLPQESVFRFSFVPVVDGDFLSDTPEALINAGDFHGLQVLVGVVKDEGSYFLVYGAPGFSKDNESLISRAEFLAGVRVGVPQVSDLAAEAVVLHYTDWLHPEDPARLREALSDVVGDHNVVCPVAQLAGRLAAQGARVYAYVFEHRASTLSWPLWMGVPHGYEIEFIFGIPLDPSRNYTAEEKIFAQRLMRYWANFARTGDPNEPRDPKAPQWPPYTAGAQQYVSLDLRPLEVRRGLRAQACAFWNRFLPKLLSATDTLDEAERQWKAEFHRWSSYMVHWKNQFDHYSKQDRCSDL
T1 sequence (O42275 24-633): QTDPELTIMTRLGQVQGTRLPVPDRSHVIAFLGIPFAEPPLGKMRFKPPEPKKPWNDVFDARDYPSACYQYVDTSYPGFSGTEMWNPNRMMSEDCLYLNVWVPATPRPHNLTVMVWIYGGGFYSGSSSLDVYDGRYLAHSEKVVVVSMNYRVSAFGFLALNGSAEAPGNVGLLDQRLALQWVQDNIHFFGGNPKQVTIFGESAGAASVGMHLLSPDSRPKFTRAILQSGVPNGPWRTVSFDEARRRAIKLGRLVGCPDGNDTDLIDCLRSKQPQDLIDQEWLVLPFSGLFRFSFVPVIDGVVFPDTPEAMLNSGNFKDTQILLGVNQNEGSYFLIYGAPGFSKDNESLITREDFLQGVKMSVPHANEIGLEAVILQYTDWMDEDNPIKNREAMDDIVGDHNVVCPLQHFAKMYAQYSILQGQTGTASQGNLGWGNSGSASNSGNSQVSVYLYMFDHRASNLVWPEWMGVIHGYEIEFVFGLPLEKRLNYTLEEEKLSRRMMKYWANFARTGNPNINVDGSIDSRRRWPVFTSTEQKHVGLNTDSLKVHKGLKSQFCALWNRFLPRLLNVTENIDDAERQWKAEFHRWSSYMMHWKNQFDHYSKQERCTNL

Compound	IC50 [5] [µM]	IC50 [6] [µM]	IC50 [7] [µM]	IC50 [8] [µM]	IC50 [9] [µM]	Ki [8] [µM]	other results
1-hydroxypyridine-2(1H)-thione [Complex L1]							IC50 [1]: > 100 µM; IC50 [2]: > 100 µM; IC50 [3]: > 100 µM; IC50 [4]: > 100 µM
Cc1ccc(C(C)C)cc1.FC(F)(F)C1=[O+][Ru-]([P+]23CN4CN(CN(C4)C2)C3)[O]C(c2ccccc2Br)=C1.F[P-](F)(F)(F)(F)F [Complex 7, [RuCym(L2)pta]PF6]	> 100	> 100	19.2 ± 1.5	> 100	> 100		type of inhibition of hsBChE [7]: reversible and competitive; Ki ([7]; determined for compounds with IC50 < 33 μM, substrate 0.125, 0.25, 0.5 mM, read-out: Enzyme Inhibition hsBChE Ki): 9.26 µM
O=[C]=[Ru-2]12(=[C]=O)([O][n+]3ccccc3[S]1)[O][n+]1ccccc1[S]2 [Complex 8, [Ru(L1)2(CO)2]]	> 100	> 100	> 100		16.6 ± 1.4	0.85	type of inhibition of hlGST [8]: reversible and competitive; type of inhibition of hGST [9]: reversible and competitive; Ki [9]: 9.65 µM
O=C(CC(=O)C(F)(F)F)c1ccccc1Br [Complex L2, 1-(2-bromophenyl)-4,4,4-trifluorobutane-1,3-dione, reference compound]	> 100	> 100	> 100	> 100	> 100		
CCCCCCCCCCCCCCCCCC(=O)CC(=O)c1ccccc1 [Complex L3, 1-phenylicosane-1,3-dione, reference compound]	> 100	> 100	> 100	> 100	> 100		
CN(C)C(=O)Oc1cccc([N+](C)(C)C)c1 [Neostigmine methylsulphate, reference compound]	5.98 ± 1		92.7 ± 2.2	> 100	> 100		
Cc1ccc(C(C)C)cc1.Cc1ccc(C(C)C)cc1.[Cl][Ru][Cl].[Cl][Ru][Cl] [Precursor 9, dichloro(p-cymene) ruthenium(II) dimer [Ru(p-cymene)Cl2]2]							IC50 [1]: > 100 µM; IC50 [10]: > 100 µM; IC50 [2]: 32.7 ± 4.3 µM; IC50 [3]: > 100 µM; IC50 [4]: > 100 µM
[RuCym(L1)Br] [Complex 2]					4.64 ± 3.7	0.79	type of inhibition of eeAChE [5]: reversible and competitive; type of inhibition of hrAChE [6]: reversible and competitive; type of inhibition of hsBChE [7]: reversible and competitive; type of inhibition of hlGST [8]: reversible and competitive; type of inhibition of hGST [9]: reversible and competitive; Ki [9]: 4.08 µM
[RuCym(L1)Cl] [Complex 1]							IC50 [3]: 2.26 ± 0.5 µM; Ki ([3]; read-out: Enzyme Inhibition hlGST Ki): 10 µM; IC50 [4]: 45 ± 5.2 µM
[RuCym(L1)I] [Complex 3]					16 ± 3	1.6	type of inhibition of eeAChE [5]: reversible and competitive; type of inhibition of hrAChE [6]: reversible and competitive; type of inhibition of hsBChE [7]: reversible and competitive; type of inhibition of hlGST [8]: reversible and competitive; type of inhibition of hGST [9]: reversible and competitive; Ki [9]: 8.6 µM
[RuCym(L1)pta]PF6 [Complex 6]				> 100			
tricarbonyldichlororuthenium(II) dimer [Ru(CO)3Cl2]2 [Precursor 10, reference compound]				9.76 ± 0.4	97.7 ± 1	2.93	inhibition of hGST (in words) [9]: only weakly
